Source: the supplement of paper PMC10307832

Key:
Test in all cases: relative viability (nuclei count vs DMSO), 5 days (fraction); higher = more cells survive
[1] = compound: CCN(CCO)CCCC(C)Nc1ccnc2cc(Cl)ccc12 [Hydroxychloroquine]
How it was run: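 Lung cancer cell lines received five library-drug doses (not always all listed) spaced by √10, pinned on vehicle-anchored 1536-well plates after an overnight stay at 37 °C. Five days later, with no medium change, nuclei were Hoechst-stained, imaged at 4× and counted with MetaXpress. Viability is treated-well nuclei relative to vehicle-well nuclei, as a median across plates. Passing plates had control CV below 25% and at least one doubling.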

[2] = compound: CCN(CCO)CCCC(C)Nc1ccnc2cc(Cl)ccc12 [Hydroxychloroquine] + N=C(N)NC(=N)NCCc1ccccc1 [Phenformin] (partner 250 µM)
How it was run: (§1)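 Each reported value is a median over duplicate plates. It expresses relative viability: treated-well nuclei count divided by vehicle-well nuclei count. Lung cancer cell lines in 1536-well plates were dosed by pin tool a day after seeding, alone with one drug or with a fixed anchor-drug dose plus five library-drug doses (not always all listed) in √10 steps, and nuclei were counted after 5 days.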

[3] = compound: CCN(CCO)CCCC(C)Nc1ccnc2cc(Cl)ccc12 [Hydroxychloroquine] + COc1cccc2cc(-c3nc([C@H]4CC[C@H](C(=O)O)CC4)n4ncnc(N)c34)[nH]c12 [OSI-027] (partner 0.5 µM)
How it was run: as §1

[4] = compound: CCN(CCO)CCCC(C)Nc1ccnc2cc(Cl)ccc12 [Hydroxychloroquine] + CC(=O)Nc1cccc(-n2c(=O)n(C3CC3)c(=O)c3c(Nc4ccc(I)cc4F)n(C)c(=O)c(C)c32)c1 [Trametinib] (partner 0.02 µM)
How it was run: as §1

Cell Line	relative viability ([1]; 0.5 µM)	relative viability ([1]; 1.581 µM)	relative viability ([1]; 5 µM)	relative viability ([1]; 15.81 µM)	relative viability ([1]; 50 µM)	relative viability ([2]; first compound 0.5 µM)	relative viability ([2]; first compound 1.581 µM)	relative viability ([2]; first compound 5 µM)	relative viability ([2]; first compound 15.81 µM)	relative viability ([2]; first compound 50 µM)	relative viability ([3]; first compound 0.5 µM)	relative viability ([3]; first compound 1.581 µM)	relative viability ([3]; first compound 5 µM)	relative viability ([3]; first compound 15.81 µM)	relative viability ([3]; first compound 50 µM)	relative viability ([4]; first compound 0.5 µM)	relative viability ([4]; first compound 1.581 µM)	relative viability ([4]; first compound 5 µM)	relative viability ([4]; first compound 15.81 µM)	relative viability ([4]; first compound 50 µM)
201T	0.965	0.974	0.968	0.981	1.04	0.441	0.428	0.449	0.419	0.526	0.731	0.738	0.721	0.827	0.965	0.727	0.777	0.728	0.733	0.724
A549	1.01	0.945	1.03	0.928	1.08	0.154	0.0895	0.15	0.14	0.154	–	–	–	–	–	–	–	–	–	–
A-427	0.995	0.945	0.964	1	0.968	0.316	0.293	0.315	0.284	0.229	0.486	0.308	0.387	0.412	0.424	0.752	0.639	0.697	0.715	0.675
ABC-1	0.89	0.854	0.856	0.885	0.91	0.244	0.205	0.237	0.192	0.206	0.469	0.501	0.467	0.417	0.631	–	–	–	–	–
BEN	1.04	0.894	0.977	1.06	1.07	0.255	0.26	0.234	0.241	0.303	0.319	0.284	0.268	0.373	0.325	0.951	0.881	0.954	1.12	1.03
CAL-12T	1.01	0.973	0.957	0.979	1.02	0.585	0.593	0.587	0.599	0.519	0.97	0.8	0.633	0.684	0.687	0.268	0.265	0.326	0.338	0.32
COR-L23	1.06	1.17	1.16	1.08	1.03	0.445	0.467	0.496	0.49	0.485	0.756	0.809	0.822	0.91	0.85	0.602	0.582	0.616	0.767	0.712
COR-L 105	0.875	0.935	0.876	0.804	0.864	0.529	0.476	0.497	0.351	0.447	0.643	0.598	0.708	0.739	0.668	0.472	0.393	0.44	0.384	0.391
Calu-6	1.04	1.03	1	1.1	1	–	–	–	–	–	–	–	–	–	–	–	–	–	–	–
ChaGo-K-1	0.958	1.07	0.911	1.01	1.03	0.509	0.542	0.438	0.501	0.522	0.688	0.675	0.498	0.53	0.609	0.962	0.916	0.865	0.853	0.891
EKVX	0.962	0.902	0.893	1.02	1.01	0.249	0.192	0.249	0.243	0.208	0.797	0.851	0.79	0.758	0.776	0.348	0.302	0.316	0.637	0.352
EMC-BAC-2	1.05	0.824	0.953	1.02	0.912	0.543	0.385	0.497	0.523	0.503	0.376	0.324	0.381	0.368	0.365	0.917	0.694	0.85	0.784	0.753
EPLC-272H	0.963	0.843	0.98	0.94	1.08	0.267	0.312	0.273	0.309	0.241	0.249	0.232	0.276	0.252	0.314	0.272	0.311	0.273	0.271	0.298
H3255	0.982	0.946	0.974	0.951	0.951	0.332	0.368	0.326	0.356	0.313	0.653	0.524	0.569	0.6	0.665	0.695	0.614	0.546	0.854	0.665
HARA	1.23	0.938	0.876	1	0.903	0.475	0.406	0.519	0.442	0.465	0.608	0.416	0.469	0.486	0.435	0.725	0.975	0.88	0.704	0.613
HCC-15	1.08	0.956	1.04	1.06	1.04	0.461	0.465	0.522	0.497	0.456	0.754	0.672	0.634	0.656	0.724	0.4	0.387	0.351	0.38	0.311
HCC-44	1.04	0.996	1.01	1.01	1.04	0.316	0.145	0.171	0.226	0.234	0.504	0.418	0.43	0.511	0.547	1.07	1.04	1.14	1.08	1.1
